Read-outs that look alike come from different tables or passages of the source.
How the values were obtained:
[1] = human, Caco-2, pH 6.5
Protocol: Permeability of Compounds.
An in vitro model utilizing Caco-2/TC7 cells is employed to assess the permeability characteristics of new chemical entities (NCEs).
The permeability studies were performed under standard conditions in the apical to basolateral (A→B) direction with a pH gradient and a BSA gradient (standard apical medium (0.5% BSA at pH 6.5)/standard basal medium (5% BSA at pH 7.4)); conditions that most closely reflect the conditions in the in vivo situation. Samples were deproteinized by the addition of 400 μl acetonitrile to 200 μl sample, followed by a 20-minute centrifugation at 1730 g. Compound solubilisation: compound solutions at final concentrations of 20 μM were prepared following dilutions of stock solutions (starting from 10 mM in DMSO) in HBSS. Final concentration of DMSO was adjusted to 1%. Analytical conditions: Supernatants recovered following centrifugation were analysed by LC/MS/MS using a reverse phase column and the mobile phases delivered at 0.3 ml/minute in a gradient: water (A) and acetonitrile (B) (each with 0.1% formic acid).
Every experiment (n) represents the mean of 3 filters per experiment.

Haemonchus contortus [2] = test: Method A: Haemonchus contortus L1 larval development/motility screen in microtitre plate; format: cell-based; conditions: 96 h, read-out: motility inhibition
[3] = tested on: microfilaria of Dirofilaria immitis; test: Method C: microfilaria of Dirofilaria immitis motility screen; format: cell-based; conditions: read-out: inhibition of the microfilaria's motility
[4] = tested on: anthelmintic-resistant isolate of Haemonchus contortus; test: Method B: screen against anthelmintic-resistant (benzimidazole-resistant) isolate of Haemonchus contortus; conditions: benzimidazole-resistant H. contortus isolate
From the text: The conditions described in method A were used against an isolate of H. contortus found to be functionally resistant against the benzimidazole class of anthelmintics (e.g. 127-fold resistance to thiabendazole).

[5] = tested on: Trichostrongylus colubriformis; test: Method F: Trichostrongylus colubriformis in vivo in Mongolian jirds; conditions: oral gavage, 5 mg/kg, necropsy 3 days after treatment
Protocol: (§1) Method to test activity of compounds against Trichostrongylus colubriformis in vivo in Mongolian jirds (Meriones unguiculatus). Mongolian jirds, at least five weeks old, that have been immunosuppressed were artificially infected with ensheathed Trichostrongylus colubriformis third instar larvae. Six days after infection, the jirds were treated by oral gavage with the test compounds, dissolved in a mixture of DMSO/corn oil, at doses of 30 mg/kg. Jirds treated only with the placebo (DMSO/corn oil carrier) served as controls. On day 9 (3 days after treatment) the jirds were euthanized and necropsied for recovery of parasites from the stomach. Efficacy was calculated as the average % reduction in the number of worms in each test group compared with the average number of worms from the control group. Compound 6 provided a 99% reduction in nematode infestation in Mongolian jirds treated by oral gavage with the test article at a dose of 5 mg/kg.

Haemonchus contortus [6] = test: Method E: Haemonchus contortus in vivo in Mongolian jirds; conditions: oral gavage, 5 mg/kg, necropsy 3 days after treatment
Protocol: Method to test activity of compounds against Haemonchus contortus in vivo in Mongolian jirds (Meriones unguiculatus).
as §1, with “Mongolian” for “Method to test activity of compounds against Trichostrongylus colubriformis in vivo in Mongolian jirds (Meriones unguiculatus). Mongolian”, “Haemonchus contortus” for “Trichostrongylus colubriformis”, “5” for “30”, “100%” for “99%”

Row | Compound | Papp A→B at 20 μM [1] [×10⁻⁶ cm/s] | inhibition at 5 µM (Haemonchus contortus [2]) [%] | inhibition at 10 µM ([3]; 10 μM, 24 hours) [%] | inhibition at 10 µM ([3]; 24 h) [%] | inhibition at 5 ppm ([3]; 24 h) [%] | resistance of the isolate to thiabendazole [4] [fold] | reduction in nematode infestation [5] [%] | reduction in nematode infestation (Haemonchus contortus [6]) [%]
1 | O=C(Cc1ccc(F)cc1)N1CCN(c2cncc(O[C@H]3CC[C@H](Nc4ccc([N+](=O)[O-])c(C(F)(F)F)c4)CC3)c2)CC1 [Compound 22] | 1.57 | ≥ 90 | ≥ 90 |  |  |  |  | 
2 | O=[N+]([O-])c1ccc(N[C@H]2CC[C@H](Oc3ccnc(N4CCN(CC5CCCC5)CC4)c3)CC2)cc1C(F)(F)F [Compound 37, 4-nitro-N-[4-([2-[4-(cyclopentylmethyl)piperazin-1-yl]pyridin-4-yl]oxy)cyclohexyl]-3-(trifluoromethyl)] | 2.55 | ≥ 90 |  | ≥ 90 |  |  |  | 
3 | CCCOC(=O)N1CCN(c2cncc(O[C@H]3CC[C@H](Nc4ccc([N+](=O)[O-])c(C(F)(F)F)c4)CC3)c2)CC1 [Compound 21] | 3.45 | ≥ 90 |  |  | ≥ 90 |  |  | 
4 | O=[N+]([O-])c1ccc(N[C@H]2CC[C@H](Oc3cncc(N4CCN(Cc5ccc(C(F)(F)F)cc5)CC4)c3)CC2)cc1C(F)(F)F [Compound 18] | 0.53 | ≥ 90 |  | ≥ 90 |  |  |  | 
5 | CC(C)(C)OC(=O)N1CCN(c2cc(O[C@H]3CC[C@H](Nc4ccc([N+](=O)[O-])c(C(F)(F)F)c4)CC3)ccn2)CC1 [Compound 34] | 1.77 | ≥ 90 |  |  | ≥ 90 |  |  | 
6 | O=C(CC1CCCCC1)N1CCN(c2cc(O[C@H]3CC[C@H](Nc4ccc([N+](=O)[O-])c(C(F)(F)F)c4)CC3)ccn2)CC1 [Compound 14] | 2.28 | ≥ 90 |  | ≥ 90 |  |  |  | 
7 | c1ccc2[nH]c(-c3cscn3)nc2c1 [thiabendazole] |  |  |  |  |  | 127 |  | 
8 | N#Cc1ccc(NC2CCC(Oc3cncc(N4CCN(c5ccc(C(F)(F)F)cn5)CC4)c3)CC2)cc1C(F)(F)F (centres unmarked) [Compound 6, 4-[[4-[(5-[4-[5-(trifluoromethyl)pyridin-2-yl]piperazin-1-yl]pyridin-3-yl)oxy]cyclohexyl]amino]-2-(trifluoromethyl)benzonitrile] | 0.64 | ≥ 90 |  |  |  |  | 99 | 100
9 | CC(C)(C)OC(=O)N1CCN(c2ccnc(O[C@H]3CC[C@H](Nc4ccc([N+](=O)[O-])c(C(F)(F)F)c4)CC3)c2)CC1 [Compound 13] | 0.78 | ≥ 90 |  |  | ≥ 90 |  |  | 

— patent US10597364B2, “Anthelmintic compounds, compositions and method of using thereof” (priority 2015, dated 2020)
